Experimental findings from PubChem BioAssay (NCI) are described below.

Among the test systems are HCT-15 colon; UO-31 renal; TK-10 renal; DMS 273 small cell lung; LOX IMVI melanoma; M19-MEL melanoma; RXF 393 renal; SK-OV-3 ovarian; UACC-257 melanoma.
Common to all, as to test: NCI-60 cell line screen, 48 h

Molecules are shown by their SMILES. Several values for one entry are separate records, joined by “and”; a condition that tells them apart may be missing. Equal values may be shown once.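 In this assay, cells in 96-well plates receive the compound at five concentrations for 48 hours. Endpoints are linearly interpolated between the surrounding concentrations. GI50 = concentration required for 50% inhibition of growth. The concentration for full growth arrest is given as TGI.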

As for `CC(C)CCCC(C)[C@H]1CCC2[C@@H]3CCC4Nc5nocc5C[C@]4(C)C3CC[C@@]21C` (some centres undefined), the TGI in the assay with HCT-15 colon came out at 30.3 µM; with UO-31 renal, 27.9 µM; in the assay with TK-10 renal, 21.1 µM; in the assay on DMS 273 small cell lung, 37.3 µM; in the assay on LOX IMVI melanoma, 4.95 µM; with M19-MEL melanoma, 33.7 µM. Moreover, the TGI in the assay with RXF 393 renal is 28.5 µM; in the assay on SK-OV-3 ovarian, 34.8 µM; in the assay on UACC-257 melanoma, 39.5 µM.

In the case of `COc1cccc2c1C(=O)c1c(O)c3c(c(O)c1C2=O)CC(O)(C(O)CO)CC3OC1CC(N2CCOCC2)C(O)C(C)O1` (centres undefined), the GI50 in the assay with HCT-15 colon was 0.0536 µM; with UO-31 renal it was 0.00398 µM and 0.0213 µM; in the assay with TK-10 renal it was 0.0233 µM; with LOX IMVI melanoma, 0.00285 µM; with M19-MEL melanoma it was under 0.001 µM; in the assay with RXF 393 renal, under 0.001 µM. For the same molecule, the GI50 in the assay on SK-OV-3 ovarian was 0.0579 µM; in the assay with UACC-257 melanoma, 0.0199 µM. Moreover, the TGI in the assay with HCT-15 colon is 0.515 µM and 1.36 µM; in the assay with UO-31 renal it was 0.0314 µM and 0.0652 µM; in the assay with DMS 273 small cell lung, 0.0109 µM and 0.0429 µM; with LOX IMVI melanoma it was 0.15 µM and 0.0586 µM; in the assay with UACC-257 melanoma it was 0.013 µM and 0.0424 µM.

On to `O=C1Nc2nc3ccccc3n2N=C2CCCC12` (centres undefined), for which the TGI in the assay with HCT-15 colon, in the assay with UO-31 renal, in the assay on TK-10 renal, with DMS 273 small cell lung, in the assay on LOX IMVI melanoma and in the assay on M19-MEL melanoma was over 100 µM in each case. For the same molecule, the TGI in the assay on RXF 393 renal, with SK-OV-3 ovarian and with UACC-257 melanoma was over 100 µM each time.

As for `C[C@]12CCC(=O)C=C1CC[C@@H]1C2CC[C@]2(C)Nc3c(cnn3-c3ccccc3)CC12` (some centres undefined), the TGI in the assay on HCT-15 colon, in the assay with UO-31 renal, in the assay with TK-10 renal, in the assay with DMS 273 small cell lung, with M19-MEL melanoma and in the assay on RXF 393 renal was over 100 µM in each case. Moreover, the TGI in the assay with SK-OV-3 ovarian and in the assay with UACC-257 melanoma was over 100 µM each time.

Turning to `CCN(CC)CCOc1ccc(CCc2cc(OC)c(OC)c(OC)c2)cc1`, the TGI in the assay on HCT-15 colon was over 100 µM; with UO-31 renal, over 100 µM; with TK-10 renal it was 88.9 µM; with DMS 273 small cell lung it was 35.8 µM; in the assay on LOX IMVI melanoma, 26.9 µM; in the assay with M19-MEL melanoma, 53.8 µM. Moreover, the TGI worked out at 93.2 µM with RXF 393 renal and 69.9 µM with UACC-257 melanoma.

As for `Cc1ccc(SSc2ccc(C)cc2C(=O)O)c(C(=O)O)c1`, the TGI in the assay with UO-31 renal, with TK-10 renal, with DMS 273 small cell lung, with LOX IMVI melanoma, in the assay on M19-MEL melanoma and with RXF 393 renal was over 100 µM in each case. Also, the TGI with SK-OV-3 ovarian and with UACC-257 melanoma was over 100 µM in each case.

With `O=C1NC2(CCCCCC2)C2CCCCCCC12O` (centres undefined), the TGI in the assay on HCT-15 colon, in the assay on UO-31 renal, in the assay on TK-10 renal, in the assay on DMS 273 small cell lung, in the assay with LOX IMVI melanoma and in the assay with M19-MEL melanoma was over 100 µM in each case. The TGI in the assay on RXF 393 renal, with SK-OV-3 ovarian and with UACC-257 melanoma was over 100 µM each time.

For the molecule `Cc1oc2c(C)c3oc(=O)cc(C)c3cc2c1CN1C(=O)C2OCCOCCOCCOCCOCCO[C@H]2C1=O` (some centres undefined), the TGI in the assay on HCT-15 colon, with UO-31 renal, in the assay on TK-10 renal, with DMS 273 small cell lung, in the assay on LOX IMVI melanoma and in the assay on M19-MEL melanoma was over 100 µM each time. Also, the TGI in the assay with RXF 393 renal, in the assay on SK-OV-3 ovarian and in the assay on UACC-257 melanoma was over 100 µM in each case.

Turning to `O=C1C2C3C=C4c5ccccc5N(c5ccccc5)C4(C2C(=O)N1c1ccc(Cl)cc1)[C@H]1C(=O)N(c2ccc(Cl)cc2)C(=O)[C@@H]31` (some centres undefined), the TGI with HCT-15 colon, with UO-31 renal, in the assay on TK-10 renal, in the assay with DMS 273 small cell lung, in the assay on LOX IMVI melanoma and with M19-MEL melanoma was over 100 µM each time. In addition, the TGI in the assay with RXF 393 renal, with SK-OV-3 ovarian and in the assay on UACC-257 melanoma was over 100 µM throughout.

With `O=C(CC(=O)C1=CNc2ccccc2S1)C(=O)Nc1ccc(Cl)cc1`, the TGI in the assay on HCT-15 colon, with UO-31 renal, in the assay with TK-10 renal, in the assay on DMS 273 small cell lung, in the assay on LOX IMVI melanoma and in the assay on M19-MEL melanoma was over 50 µM throughout. In addition, the TGI in the assay with RXF 393 renal, in the assay with SK-OV-3 ovarian and in the assay with UACC-257 melanoma was over 50 µM throughout.

For `Cc1cc(NCCCCCCNc2cc(C)nc3cc(N(C)C)ccc23)c2ccc(N(C)C)cc2n1`, the TGI was over 100 µM in the assay on HCT-15 colon; over 100 µM in the assay on UO-31 renal; over 100 µM with TK-10 renal; 29.5 µM with DMS 273 small cell lung; over 100 µM in the assay on M19-MEL melanoma; over 100 µM in the assay on RXF 393 renal. Further, the TGI in the assay with SK-OV-3 ovarian was 25 µM; in the assay on UACC-257 melanoma, over 100 µM.
